Assay results as given in patent US20260021122A1, “CANNABINOIDS AND USES THEREOF IN TREATMENT OF A DISEASE” (TECHNION RESEARCH & DEVELOPMENT FOUNDATION LIMITED, priority 2022, published 2026).

Experiments:
[1] = system: CSF-1; assay: ELISA of secreted CSF-1 in media of A375 cells; assay type: cell-based, human; conditions: 1.5 μg/ml CBG, 2 μg/ml 3704, 6 μg/ml CAN
Description: The media from B16F10 and A375 cell lines, or homogenates from B16F10 tumors, that were treated as indicated for 24 hours, were collected and the protein concentration of MCP-1, MIP-2, C-C Motif Chemokine Ligand 5 (CCL5), and CSF-1 were measured by Quantikine Mouse M-CSF Immunoassay solid-phase ELISA kit (R&D systems, Cat #MMC00) as described in the manufacture's protocol.

[2] = system: BM-MDSCs; assay: BM-MDSCs treated with conditioned media from treated B16F10 cells: myeloid subpopulation frequencies and F4/80; assay type: cell-based, mice; conditions: for reduction in the F4/80 MFI in Ly6C+ cells compared to DMSO: CM from treated B16F10 cells
Description: Bone-marrow-derived cells (BMDCs) were isolated from the fibula and tibia bones of healthy female WT C57BL/6 mice (8-12-week-old). Red blood cells were removed by using red blood lysis buffer (Biological industries, Cat #01-888-1B). Remaining cells were counted and 1×10^6 cells were seeded in complete RPMI (Sigma, Cat #R8758) containing 10% FBS (Sigma, Cat #F7524), 1% L-Glutamine (Sartorius, Cat #03-020-1B), 1% Penicillin/[…] (Sartorius, Cat #03-031-1B), 1% MEM-Eagle (Sartorius, Cat #01-340-1B), 2.5% HEPES (Sartorius, Cat #03-025-1B) and 1% sodium pyruvate (Sartorius, Cat #03-042-1B) and supplemented with 20 ng/ml of GM-CSF and IL-6 (R&D systems, 415-ML and 406-ML). Cells were incubated at 37° C. and 5% CO2 for 4 days and then treated with conditioned media, which was the media collected from B16F10 cells treated with either DMSO, CBG, or the high-CBG extract 3704 as indicated.
To differentiate the subpopulation of myeloid cells, BMDCs and myeloid cells from tumors were stained for the extracellular makers Ly6C-BV421 (BioLegend, Clone HK1.4; Cat #128032) or Ly6C-FITC (BioLegend, Cat #128096, Clone HK1.4), Ly6G-APC (BioLegend, Clone 1A8; Cat #127614), Ly6G-BV421 (BioLegend, Cat #127627, clone 1A8), PECy7-F4/80 (BioLegend, Clone BM8 Cat #123113), BV605-CD86 (BioLegend, Clone GL-1, Cat #105037), APC-CD206 (Biolegend, Clone CO68C2, Cat #141708) and BV711-CD45 (BioLegend, Clone 30F11, Cat #103147). Cells from tumors were also stained with PE-CD3+ (BioLegend, Clone 17A2, Cat #100206) to identify the overall T-cell population. To characterize the cells in the subpopulations, cells were fixed and permeabilized with the Intracellular Fixation and Permeabilization Buffer Set (eBioscience Cat #88-8824-00) and stained with FITC-iNOS (Thermo, Clone CXNFT, Cat #53592082) or FITC-Arginase-1 (Thermo, Clone AlexF5, Cat #53-3697-82). These cells were also stained with Fixable viability Dye (FVD)-eflour 780 (Thermo, Cat #65086514) to exclude dead cells.

[3] = system: CD8+ T-cells; assay: BM-MDSCs CD8+ T-cell co-culture suppression assay; assay type: cell-based, mice
Description: Generated bone marrow-MDSC (BM-MDSCs) were treated with conditioned media for 24 hours, then sorted into MO-MDSC and PMN-MDSC subsets. Concurrently, CD8+ T-cells were isolated from the spleens of healthy female WT C57BL/6 mice (8-12-weck-old). To isolate CD8+ T-cells, spleens were mechanically disintegrated and filtered through a 70 um filter (Alex Red Ltd., Cat #SO SCS702), the red blood cells were lysed with the red blood lysis buffer (Biological industries, Cat #01-888-1B). Then, CD8+ T-cells were isolated using the EasySep Mouse CD8+T-cell isolation kit (Stemcell Technologies, Cat # 19853) according to the manufacturer's protocol. The isolation purity was measured by staining cells before and after isolation with CD8-PECY7 (BioLegend, Cat #100722, Clone 53-6.7) by flow cytometry.
Post-sorted MDSC subpopulations were co-cultured in complete RPMI with CD8+ T-cells that are activated with Dynabeads® Mouse T-Activator CD3/CD28 kit (Cat # 11456D; 12.5 μl/1×10^6 cells). After 48 hours, the activation beads were removed and cells were incubated with eBioscience Cell Stimulation Cocktail (Invitrogen, Cat #00-4970-93) for 3 hours and then also with BD GolgiStop™ Protein Transport Inhibitor (BD Biosciences, Cat #51-2092KZ) for the detection of IFN-γ. Intracellular staining of IFN-γ in CD8+ T-cells was achieved by using the BD Cytofix/Cytoperm™ Kit (BD Biosciences, Cat #554714) as stated in the manufacturer's instructions and then staining with IFN-γ-FITC (BioLegend, Cat #505806, Clone XMG1.2) and GranzymeB-FITC (BioLegend, Cat #372206, clone QA16A02).

[4] = MO-MDSCs exposed to CM of treated B16F10, 48 hours co-incubation

CCCCCc1cc(O)c(C/C=C(\C)CCC=C(C)C)c(O)c1 [CBG, cannabigerol]
CSF-1 secretion by A375 cells [1]: reduced CSF-1 secretion | overall percentage of monocytes (Ly6C+/Ly6G− cells) ([2]; BM-MDSCs treated 24 hours with CM from B16F10 treated with CBG 1.5 μg/ml or 3704 2 μg/ml): did not change | PMN-MDSC frequencies (Ly6C+/Ly6G+) ([2]; CM from B16F10 treated with CBG 1.5 μg/ml or 3704 2 μg/ml): not affected by any treatment | MO-MDSC (Ly6Chigh/Ly6G−) percentages ([2]; CM from B16F10 treated with CBG 1.5 μg/ml or 3704 2 μg/ml, compared to B16F10 treated with DMSO): significant decrease in MO-MDSC percentages | reduction in the F4/80 MFI in Ly6C+ cells compared to DMSO ([2]; 24 hours): trend was apparent after 24 hours | reduction in the F4/80 MFI in Ly6C+ cells compared to DMSO ([2]; 48 hours): statistically significant after 48 hours | CD8+ IFN-γ expression, co-culture with MO-MDSCs [3, 4]: restoration of CD8+ IFN-γ expression in a dose-dependent manner | GrzB expression in CD8+ T-cells co-cultured with MO-MDSCs [3, 4]: trend of restored GrzB expression | GrzB expression in CD8+ T-cells co-cultured with PMN-MDSCs ([3]; PMN-MDSC exposed to CM of treated B16F10, 48 hours co-incubation): trend of reduced GrzB expression | CD8+ IFN-γ expression, co-culture with PMN-MDSCs ([3]; PMN-MDSCs exposed to CM of treated B16F10, 48 hours co-incubation): no significant changes with either of the treatments
